Source: US6121257A, “Sulfamate containing macrocyclic immunomodulators” (Abbott Laboratories, priority 1999, dated 2000)

Legend:
[1] = in vivo; design: species or system Lewis rats; settings: rat, 5 mg/kg
Experimental: In Vivo Assay of Biological Activity Whole blood concetration in the Rat.
Lewis rats (obtained from Charles River, Wilmington, Mass.), weighing 225-250 grams, were acclimated for one week in a AAALAC approved facility. All animals were fasted overnight prior to dosing and throughout the study period but were permitted free access to water. Groups of animals were given FK-506 or Example 14 at a dose of 5 mg/kg. Drugs were given in a 2 ml/kg volume of 10% ethanol, 40% propylene glycol and 2% cremophore in 5% dextrose solution for both oral (p.o.) and intraperitoneal (i.p.) administration, and in a 1 ml/kg volume of the same vehicle without cremophor for intravenous (i.v.) dosing. Blood samples were collected from the tail vein in heparinized tubes at selected time points 0.25, 2.0, and 4.0 hours after dosing.
Drugs were separated from the hemolyzed whole blood contaminants utilizing liquid-liquid extraction with ethyl acetate:hexane (1:1 by volume). Samples were centrifuged at 1200 x g for 10 minutes (4° C.) and a constant volume of the organic layer was transferred to a conical centrifuge tube and evaporated to dryness with a gentle stream of dry air over low heat (~35° C.). The samples were reconstituted with 40% (v/v) acetonitrile in water with vortexing. The compounds of interest were separated from the co-extracted components by a 5 cm×4.6 mm, 3 μm Spherisorb ODS-2 column (Regis, Morton Grove, Ill.) with an acetonitrile:methanol: 0.1% trifluoroacetic acid/0.01 M tetramethylammonium perchlorate mixture (45:5:50 by volume for FK506, 40:5:55 for analogue Example 14) at a flow rate of 1.0 ml/min with UV detection at 205 nm. The temperature of the HPLC column was maintained at 70° C.
The concentration of each sample in whole blood was calculated by a least squares linear regression analysis of the peak area compared to spiked rat blood standards.

[2] = test system: human mixed lymphocyte reaction (MLR); test: human mixed lymphocyte reaction (MLR) assay; assay type: cell-based; settings: Table 1
Experimental: The immunosuppressant activity of the compounds of the present invention was determined using the human mixed lymphocyte reaction (MLR) assay described by Kino, T. et al., in Transplantation Proceedings, XIX(5):36-39, Suppl. 6 (1987), hereby incorporated by reference.

Row | concentration at 0.25 h [1] | concentration at 2 h [1] | concentration at 4 h [1] | IC50 [2] | Whole Blood Concentration at 4 hours ([1]; 240 min) | Structure (SMILES) | elimination from the blood [1]
1 | 1140 ng/mL | 440 ng/mL | 430 ng/mL | – | – | C=CC[C@@H]1/C=C(\C)C[C@H](C)C[C@H](OC)[C@H]2O[C@@](O)(C(=O)C(=O)N3CCCC[C@H]3C(=O)O[C@H](/C(C)=C/[C@@H]3CC[C@@H](O)[C@H](OC)C3)[C@H](C)[C@@H](O)CC1=O)[C@H](C)C[C@@H]2OC [FK-506, reference compound] | –
2 | 1400 ng/mL | 50 ng/mL | – | 820 pM | 0.00 µg/mL | CC[C@@H]1/C=C(\C)C[C@H](C)C[C@H](OC)[C@H]2O[C@@](O)(C(=O)C(=O)N3CCCC[C@H]3C(=O)O[C@H](/C(C)=C/[C@@H]3CC[C@@H](OS(N)(=O)=O)[C@H](OC)C3)[C@H](C)[C@@H](O)CC1=O)[C@H](C)C[C@@H]2OC [Example 14] | rapidly eliminated from the blood after 2 hours
